Experimental data from patent US5441941A, “1,2-dihydroellipticines with activity against CNS specific cancer” (The United States of America as represented by the …, priority 1993, dated 1995).

Experiments:
MOLT-4 = experiment: cells; conditions: Homo sapiens
KM20L2 = experiment: cells; conditions: Homo sapiens
786-0 = experiment: cells; conditions: Homo sapiens
Human tumor cell lines = experiment: NCI in vitro screen, overall result; conditions: Tables I and II
CCRF-CEM = experiment: NCI in vitro screen, SRB percent growth, Leukemia
K-562 = experiment: NCI in vitro screen, SRB percent growth, Leukemia
SK-MEL-2 = experiment: NCI in vitro screen, SRB percent growth, Melanoma
SK-MEL-5 = experiment: NCI in vitro screen, SRB percent growth, Melanoma
UACC-62 = experiment: NCI in vitro screen, SRB percent growth, Melanoma
SF-268 = experiment: NCI in vitro screen, SRB percent growth, CNS Cancer
SF-539 = experiment: as above
HCT-116 = experiment: NCI in vitro screen, SRB percent growth, Colon Cancer
HT29 = experiment: as above
KM12 = experiment: as above
TK-10 = experiment: NCI in vitro screen, SRB percent growth, Renal Cancer
UO-31 = experiment: as above
NCI-H23 = experiment: NCI in vitro screen, SRB percent growth, Non-Small Cell Lung Cancer
[1] = MOLT-4, read-out: Percent Growth
[2] = KM-20L2, read-out: Percent Growth
[3] = 786-0, read-out: Percent Growth
[4] = Log10 Concentration -4.0, 100 µM
[5] = Log10 Concentration -7.0, 0.1 µM

## COc1ccc2[nH]c3c(C)c4c(c(C)c3c2c1)CN(C)C=C4 [Formula VII]
MOLT-4; MOLT-4
  GI50: 0.3 µM
MOLT-4; MOLT-4, read-out: LC-50
  CC50: > 100 µM
MOLT-4; [1]
  activity at 0.01 µM: 110%
  activity at 0.1 µM: 68%
  activity at 1 µM: 30%
  activity at 10 µM: 8%
  activity at 100 µM: -27%
MOLT-4; MOLT-4, read-out: TGI
  IC (TGI): 16.7 µM
KM20L2; KM-20L2
  GI50: 3.63 µM
KM20L2; KM-20L2, read-out: LC-50
  CC50: > 100 µM
KM20L2; [2]
  activity at 0.01 µM: 106%
  activity at 0.1 µM: 104%
  activity at 1 µM: 82%
  activity at 10 µM: 25%
  activity at 100 µM: -34%
KM20L2; KM-20L2, read-out: TGI
  IC (TGI): 26.4 µM
786-0; 786-0
  GI50: 0.0408 µM
786-0; 786-0, read-out: LC-50
  CC50: 66.7 µM
786-0; [3]
  activity at 0.01 µM: 69%
  activity at 0.1 µM: 38%
  activity at 1 µM: 3%
  activity at 10 µM: -20%
  activity at 100 µM: -56%
786-0; 786-0, read-out: TGI
  IC (TGI): 1.3 µM
Human tumor cell lines
  effect against many kinds of cancer: effective against many kinds of cancer
CCRF-CEM; [4]
  Percent Growth: -10%
CCRF-CEM; Log10 Concentration -5.0
  Percent Growth: 29%
CCRF-CEM; Log10 Concentration -6.0, 1 µM
  Percent Growth: 78%
CCRF-CEM; [5]
  Percent Growth: 92%
CCRF-CEM; PG=0
  TGI: 54.5 µM
CCRF-CEM; PG=+50
  GI50: 3.65 µM
CCRF-CEM; read-out: LC-50, PG=-50
  CC50: > 100 µM
K-562; [4]
  Percent Growth: -24%
K-562; Log10 Concentration -5.0
  Percent Growth: 11%
K-562; Log10 Concentration -6.0, 1 µM
  Percent Growth: 75%
K-562; [5]
  Percent Growth: 84%
K-562; PG=0
  TGI: 20.4 µM
K-562; PG=+50
  GI50: 2.48 µM
K-562; read-out: LC-50, PG=-50
  CC50: > 100 µM
SK-MEL-2; [4]
  Percent Growth: -91%
SK-MEL-2; Log10 Concentration -5.0
  Percent Growth: -23%
SK-MEL-2; Log10 Concentration -6.0, 1 µM
  Percent Growth: 110%
SK-MEL-2; [5]
  Percent Growth: 137%
SK-MEL-2; Log10 Concentration -8.0
  Percent Growth: 125%
SK-MEL-2; PG=0
  TGI: 6.69 µM
SK-MEL-2; PG=+50
  GI50: 2.83 µM
SK-MEL-2; read-out: LC-50, PG=-50
  CC50: 24.7 µM
SK-MEL-5; [4]
  Percent Growth: -53%
SK-MEL-5; Log10 Concentration -5.0
  Percent Growth: -53%
SK-MEL-5; Log10 Concentration -6.0, 1 µM
  Percent Growth: 75%
SK-MEL-5; [5]
  Percent Growth: 94%
SK-MEL-5; Log10 Concentration -8.0
  Percent Growth: 99%
SK-MEL-5; PG=0
  TGI: 3.85 µM
SK-MEL-5; PG=+50
  GI50: 1.56 µM
SK-MEL-5; read-out: LC-50, PG=-50
  CC50: 9.49 µM
UACC-62; [4]
  Percent Growth: -44%
UACC-62; Log10 Concentration -5.0
  Percent Growth: 31%
UACC-62; Log10 Concentration -6.0, 1 µM
  Percent Growth: 88%
UACC-62; [5]
  Percent Growth: 118%
UACC-62; Log10 Concentration -8.0
  Percent Growth: 129%
UACC-62; PG=0
  TGI: 26.1 µM
UACC-62; PG=+50
  GI50: 4.68 µM
UACC-62; read-out: LC-50, PG=-50
  CC50: > 100 µM
SF-268; [4]
  Percent Growth: -55%
SF-268; Log10 Concentration -5.0
  Percent Growth: -45%
SF-268; Log10 Concentration -6.0, 1 µM
  Percent Growth: 2%
SF-268; [5]
  Percent Growth: 76%
SF-268; Log10 Concentration -8.0
  Percent Growth: 91%
SF-268; PG=0
  TGI: 1.1 µM
SF-268; PG=+50
  GI50: 0.223 µM
SF-268; read-out: LC-50, PG=-50
  CC50: 35 µM
SF-539; [4]
  Percent Growth: -33%
SF-539; Log10 Concentration -5.0
  Percent Growth: -43%
SF-539; Log10 Concentration -6.0, 1 µM
  Percent Growth: 30%
SF-539; [5]
  Percent Growth: 99%
SF-539; Log10 Concentration -8.0
  Percent Growth: 116%
SF-539; PG=0
  TGI: 2.6 µM
SF-539; PG=+50
  GI50: 0.518 µM
SF-539; read-out: LC-50, PG=-50
  CC50: > 100 µM
HCT-116; [4]
  Percent Growth: -28%
HCT-116; Log10 Concentration -5.0
  Percent Growth: 29%
HCT-116; Log10 Concentration -6.0, 1 µM
  Percent Growth: 80%
HCT-116; [5]
  Percent Growth: 101%
HCT-116; Log10 Concentration -8.0
  Percent Growth: 106%
HCT-116; PG=0
  TGI: 32.2 µM
HCT-116; PG=+50
  GI50: 3.88 µM
HCT-116; read-out: LC-50, PG=-50
  CC50: > 100 µM
HT29; [4]
  Percent Growth: -73%
HT29; Log10 Concentration -5.0
  Percent Growth: 24%
HT29; Log10 Concentration -6.0, 1 µM
  Percent Growth: 88%
HT29; [5]
  Percent Growth: 112%
HT29; Log10 Concentration -8.0
  Percent Growth: 97%
HT29; PG=0
  TGI: 17.8 µM
HT29; PG=+50
  GI50: 3.92 µM
HT29; read-out: LC-50, PG=-50
  CC50: 58 µM
KM12; [4]
  Percent Growth: -86%
KM12; Log10 Concentration -6.0, 1 µM
  Percent Growth: 28%
KM12; [5]
  Percent Growth: 59%
KM12; Log10 Concentration -8.0
  Percent Growth: 78%
KM12; PG=0
  TGI: 2.32 µM
KM12; PG=+50
  GI50: 0.194 µM
KM12; read-out: LC-50, PG=-50
  CC50: 10.6 µM
TK-10; [4]
  Percent Growth: -6%
TK-10; Log10 Concentration -5.0
  Percent Growth: 64%
TK-10; Log10 Concentration -6.0, 1 µM
  Percent Growth: 114%
TK-10; [5]
  Percent Growth: 127%
TK-10; Log10 Concentration -8.0
  Percent Growth: 120%
TK-10; PG=0
  TGI: 82.7 µM
TK-10; PG=+50
  GI50: 15.9 µM
TK-10; read-out: LC-50, PG=-50
  CC50: > 100 µM
UO-31; [4]
  Percent Growth: 10%
UO-31; Log10 Concentration -5.0
  Percent Growth: 83%
UO-31; Log10 Concentration -6.0, 1 µM
  Percent Growth: 101%
UO-31; [5]
  Percent Growth: 112%
UO-31; Log10 Concentration -8.0
  Percent Growth: 119%
UO-31; PG=0
  TGI: > 100 µM
UO-31; PG=+50
  GI50: 28.4 µM
UO-31; read-out: LC-50, PG=-50
  CC50: > 100 µM
NCI-H23; [4]
  Percent Growth: -48%
NCI-H23; Log10 Concentration -5.0
  Percent Growth: -26%
NCI-H23; Log10 Concentration -6.0, 1 µM
  Percent Growth: 39%
NCI-H23; [5]
  Percent Growth: 97%
NCI-H23; Log10 Concentration -8.0
  Percent Growth: 112%
NCI-H23; PG=0
  TGI: 4.02 µM
NCI-H23; PG=+50
  GI50: 0.648 µM
NCI-H23; read-out: LC-50, PG=-50
  CC50: > 100 µM
